Test results: patent US7429564B2, “Oral insulin therapy” (Emisphere Technologies, Inc., priority 2002, dated 2008)

Key:
blood glucose = tested on: blood glucose; parameters: species or system Sprague-Dawley rats; conditions: rat, in vivo, 0.05 mg/kg
Protocol: An aqueous insulin stock solution was prepared (at pH 7.5) with a final insulin concentration of approximately 15 mg/mL. Delivery agents were dissolved in water with subsequent additions of sodium hydroxide or hydrochloric acid to both dissolve the delivery agent and to titrate the dosing solution to pH 7.5-8.5. The required amount of insulin was added to the delivery agent solution before dosing.
Insulin levels in the rats were assayed using the Insulin ELISA Test Kit [DSL, Webster, Tex. Cat. #DSL-10-1600]. The assay covered the range 3.125 to 250 mU/mL. Blood glucose levels in the rats were measured using a glucometer, One-Touch Basic Blood Glucose Monitoring System, manufactured by Lifescan Inc. (Milpitas, Calif.).
A total of 60 male Sprague-Dawley rats were fasted for 24 hours and then anesthetized with Thorazine (1.5 mg/kg, im) and Ketamine (44 mg/kg, im). They were then divided into the following 5 treatment groups: • 1. H2O (p.o. 1 mL/kg) • 2. Carrier (p.o., 1 mL/kg; 200 mg/kg) • 3. Insulin (p.o., 1 ml/kg; 0.5 mg/kg) • 4. Insulin and Carrier (p.o., 1 ml/kg; 0.5 mg/kg Insulin and 200 mg/kg 1182) • 5. Insulin (s.c., 0.05 mg/kg) • There were twelve animals per group, with three being sacrificed at 30, 60, 120 and 180 minutes. For serum insulin and blood glucose monitoring, 0.4 mL of blood was drawn from the tail artery. […]

glucose infusion rate = assay: Example 6: glucose clamp study, glucose infusion rate PD and relative biopotency; type: in vivo, human; conditions: SC 15 U
Description: The glucose clamp technique was applied to compare the time-action profiles of the orally applied insulin in comparison to SC regular insulin. This method utilizes negative feedback from frequent blood glucose sample values to adjust a glucose infusion to maintain a defined and constant blood glucose level. The glucose infusion rate therefore becomes a measure of the pharmacodynamic effect of any insulin administered.
During each study visit, stabilized individual blood glucose concentrations were maintained after drug administration using a glucose clamp procedure. The glucose clamp technique [DeFronzo, et al. 1979, Glucose Clamp Technique: A Method of Quantifying Insulin Secretion and Resistance, Am. J. Physiol. 237: E214-E223.] was use to compare the time-action profiles of the orally-applied insulin to s.c. insulin. This method utilizes negative feedback from frequent blood glucose sample values to adjust a glucose infusion to maintain euglycemia. The glucose infusion rate becomes a measure of the pharmacodynamic effect of any insulin administered.
The clamp level was adjusted by a variable intravenous (IV) insulin infusion and glucose infusion rate during a 6 hour baseline period before dosing. During the last 2 hours before administration of the study medication, the insulin infusion was set to a rate of 0.2 mU/kg/min, which rate was not changed until the end of the experiment. At t=0 minutes, exogenous insulin was administered by oral administration or by SC injection. The PD response elicited by the study medication was registered for another 6 hours. No food intake was allowed during this period, but water could be consumed as desired.
The glucose clamp procedure was performed using a Biostator (glucose controlled insulin infusion system—GCIIS, Life Science Instruments, Elkhart, Ind., USA). A 17-gauge PTFE catheter was inserted into an antecubital vein for blood sampling and kept patent with 0.15 mol/L saline. A dorsal hand vein or lateral wrist vein of the same arm was cannulated in retrograde fashion for insertion of an 18-gauge PTFE double lumen catheter connected to the glucose sensor of the Biostator. The catheterized hand was placed in a hot box and warmed to an air temperature of 55° C. On the contralateral arm, a third vein was cannulated with an 18-gauge PTFE catheter to infuse a glucose solution (20% in water). Into the same vein, an insulin solution (regular human insulin in 0.15 mol/L saline diluted with 2 mL of the patient's blood per 100 mL) was continuously infused by means of a syringe pump (Perfusor Secura FT, Braun, Melsungen, Germany).
The primary PD endpoint of the study was the area under the glucose infusion rate curve (AUCGIR) in the first hr after drug administration (AUCGIR 0-1h). The secondary endpoints for pharmacodynamic assessment were the following parameters: Maximum glucose infusion rate (GIRmax), time to GIRmax (tGIRmax), area under the glucose infusion rate curve in defined time-intervals (AUCGIR 0-2h, AUCGIR 0-3h, AUCGIR 0-4h, AUCGIR 0-5h, AUCGIR 0-6h), time to early and late half-maximum glucose infusion rate (early and late TGIR 50%), and maximum reduction of C-peptide concentrations.
PD parameters used for analysis were the maximum glucose infusion rate after application of the study drugs (GIRmax), the time to maximum glucose infusion rate (tGIRmax), time to half-maximum GIR values before GIRmax (early tGIR 50%), time to half-maximum GIR values after GIRmax (late tGIR 50%), and the area under the glucose infusion rate versus time curves from 0 to 60, 120, 180, 240, 300, and 360 min after dosing, and from 180 to 360 min post dose (AUCGIR 0-1h, AUCGIR 0-2h, AUCGIR 0-3h AUCGIR 0-4h, AUCGIR 0-5h, AUCGIR 0-6h, AUCGIR 3-6h, respectively). In addition, plasma concentrations of C-peptide and plasma glucose concentrations were used for PD analysis. […]

SC insulin: human regular insulin injected subcutaneously (Humulin R or equivalent; Calbiochem insulin in the rat studies)
Delay of tmax vs oral (blood glucose): about 15 minutes
GIR Early t50% (glucose infusion rate): 150 ± 87 min
GIRmax (glucose infusion rate): 3.6 ± 1.8 mg/kg/min
Glucose infusion rate AUC0-1h (glucose infusion rate): 27 ± 32 mg/kg
Glucose infusion rate AUC0-2h (glucose infusion rate): 136.54 ± 106.54 mg/kg
Glucose infusion rate AUC0-3h (glucose infusion rate): 271.43 ± 191.04 mg/kg
Glucose infusion rate AUC0-4h (glucose infusion rate): 421.33 ± 264.76 mg/kg
Glucose infusion rate AUC0-5h (glucose infusion rate): 548.83 ± 342.71 mg/kg
Glucose infusion rate AUC0-6h (glucose infusion rate): 650.70 ± 380.16 mg/kg
tGIRmax (glucose infusion rate): 255 ± 108 min
GIR Early t50% (glucose infusion rate; listed as SC Regular Insulin): 150.40 ± 87.44 min
GIRmax (glucose infusion rate; listed as SC Regular Insulin): 3.57 ± 1.79 mg/kg/min
Glucose infusion rate AUC0-1h (glucose infusion rate; listed as SC Regular Insulin): 27.38 ± 32.22 mg/kg
tGIRmax (glucose infusion rate; listed as SC Regular Insulin): 255.30 ± 108.15 min
